According to article PMC8403869 (Proceedings of the National Academy of Sciences of the …, 2021):

What was measured:
[1] = target: T1, human ABCG5-ABCG8 heterodimer (G5G8) (Homo sapiens, UniProt Q9H221+Q9H222); test: […]phosphate release ATPase assay; format: biochemical; details: 2.5 mM gamma-[32P]ATP (labelled compound), 2.5 mM MgCl2, liver polar lipids, 1% sodium cholate, pH 7.5, 37 °C
T1 construct: heterodimer; HEK-293S GnTI- or Pichia pastoris
T1 sequence (Q9H222 1-651): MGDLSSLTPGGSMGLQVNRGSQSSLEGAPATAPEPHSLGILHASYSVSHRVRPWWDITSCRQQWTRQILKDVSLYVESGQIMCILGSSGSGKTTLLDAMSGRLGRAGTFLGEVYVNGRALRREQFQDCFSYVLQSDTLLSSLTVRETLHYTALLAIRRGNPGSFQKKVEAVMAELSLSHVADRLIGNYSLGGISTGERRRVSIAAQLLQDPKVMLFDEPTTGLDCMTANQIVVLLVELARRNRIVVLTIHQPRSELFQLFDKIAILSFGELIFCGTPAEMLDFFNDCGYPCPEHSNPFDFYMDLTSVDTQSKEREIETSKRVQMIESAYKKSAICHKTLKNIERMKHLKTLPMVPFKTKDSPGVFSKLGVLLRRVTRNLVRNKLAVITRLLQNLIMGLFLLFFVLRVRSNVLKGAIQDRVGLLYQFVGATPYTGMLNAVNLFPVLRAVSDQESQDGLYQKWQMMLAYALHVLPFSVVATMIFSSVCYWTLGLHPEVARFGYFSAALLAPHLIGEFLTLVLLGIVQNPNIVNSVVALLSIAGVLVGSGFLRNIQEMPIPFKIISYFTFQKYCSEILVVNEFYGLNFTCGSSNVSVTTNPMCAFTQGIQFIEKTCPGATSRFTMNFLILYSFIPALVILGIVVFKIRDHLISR
T1 sequence (Q9H221 1-673): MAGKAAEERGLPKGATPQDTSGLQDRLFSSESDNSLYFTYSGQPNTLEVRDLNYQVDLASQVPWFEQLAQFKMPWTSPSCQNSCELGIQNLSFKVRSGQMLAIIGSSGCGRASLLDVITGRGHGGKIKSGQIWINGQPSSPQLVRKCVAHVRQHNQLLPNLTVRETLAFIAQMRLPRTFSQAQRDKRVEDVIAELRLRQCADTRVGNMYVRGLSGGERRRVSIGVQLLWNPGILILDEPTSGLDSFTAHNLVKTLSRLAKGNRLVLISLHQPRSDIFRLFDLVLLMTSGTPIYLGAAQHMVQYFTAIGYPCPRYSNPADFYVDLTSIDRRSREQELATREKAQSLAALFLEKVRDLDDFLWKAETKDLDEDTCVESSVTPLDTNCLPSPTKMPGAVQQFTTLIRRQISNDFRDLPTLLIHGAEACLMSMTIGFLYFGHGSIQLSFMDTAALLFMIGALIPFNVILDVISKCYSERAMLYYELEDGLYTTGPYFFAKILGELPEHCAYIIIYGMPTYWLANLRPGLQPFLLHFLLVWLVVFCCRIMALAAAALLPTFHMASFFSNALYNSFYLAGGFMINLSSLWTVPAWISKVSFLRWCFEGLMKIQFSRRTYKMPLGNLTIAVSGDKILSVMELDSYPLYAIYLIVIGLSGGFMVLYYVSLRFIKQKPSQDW

human ABCG1 (G1) = target: T2, human ABCG1 (G1) (Homo sapiens, UniProt P45844); test: NADH-coupled ATPase stimulation; format: biochemical; details: 0.25 mM cholesterol, 0.5-20 mM ATP, 2 mM MgCl2, pH 7.5, 37 °C
T2 construct: full-length cDNA, N-terminal Flag tag; homodimer; WT from Sf9, E242Q from HEK-293S GnTI-; LMNG then digitonin

Structure (SMILES) | [32P]phosphate release ATPase assay [1] | ATPase stimulation (human ABCG1 (G1))
Nc1ncnc2c1ncn2[C@@H]1O[C@H](COP(=O)(O)OP(=O)(O)OP(=O)(O)O)[C@@H](O)[C@H]1O [ATP] | The ATPase activity of purified G5G8 was determined as described | 
CC(C)CCC[C@@H](C)[C@H]1CC[C@H]2[C@@H]3CC=C4C[C@@H](O)CC[C@]4(C)[C@H]3CC[C@]12C [cholesterol] |  | ATPase activity was stimulated by cholesterol but not its diastereomer, epi-cholesterol.
